16 molecules from PubChem BioAssay (NCI) can be followed below.

“And” between values parts separate entries of the source, which are not always exact repeats. Equal values may be shown once.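 Values below derive from 48-hour exposures of cells grown in 96-well plates, with endpoints linearly interpolated between the two concentrations bracketing the appropriate inhibition level. The concentration for 50% growth inhibition is given as GI50. TGI marks complete inhibition of growth.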

Some test systems named below: A549 NSCLC; SK-MEL-28 melanoma; NCI/ADR-RES ovarian; RPMI-8226 leukemia; UACC-257 melanoma; RXF 393 renal; T-47D breast; KM12 colon; MDA-N; K-562 leukemia; NCI-H460 lung.
Common to all, as to assay: DTP human tumour cell line panel, 48 h

With `O=C1c2c(F)c(F)c(F)c(F)c2SC2=Nc3cccc4cccc(c34)N12`, the total growth inhibition concentration (TGI) with A549 NSCLC was found to be 39.8 µM; in the experiment on SK-MEL-28 melanoma, 15.9 µM; in the experiment on NCI/ADR-RES ovarian it was 10.2 µM; in the experiment with RPMI-8226 leukemia, 8.02 µM; in the experiment on UACC-257 melanoma, 13.2 µM; with RXF 393 renal, 11.1 µM. Besides, the TGI amounted to 4.9 µM with T-47D breast; 10.2 µM in the experiment on KM12 colon; 16.7 µM in the experiment on MDA-N; 4.49 µM in the experiment on K-562 leukemia; 29.3 µM with NCI-H460 lung.

On to `CCOC(=O)[C@H](CO)Nc1c(O)c2c(c(O)c1Cl)C(=O)C=CC2=O`, for which the TGI in the experiment on A549 NSCLC, in the experiment with SK-MEL-28 melanoma, in the experiment on NCI/ADR-RES ovarian, in the experiment on RPMI-8226 leukemia, in the experiment on UACC-257 melanoma and in the experiment with RXF 393 renal was greater than 10 µM throughout. In addition, the TGI in the experiment on T-47D breast, with KM12 colon, in the experiment with MDA-N, in the experiment with K-562 leukemia and in the experiment with NCI-H460 lung was greater than 10 µM throughout.

Consider `C=C(C)[C@@H]1CCC2=C(CC[C@]3(C)[C@@H]([C@@H](CCC=C(C)C)C(=O)O)[C@H](O)C[C@@]23C)[C@@]1(C)CCC(=O)O`, for which the TGI in the experiment with A549 NSCLC, in the experiment on SK-MEL-28 melanoma, with NCI/ADR-RES ovarian, in the experiment on RPMI-8226 leukemia, in the experiment on UACC-257 melanoma and in the experiment with RXF 393 renal was greater than 100 µM throughout. In addition, the TGI in the experiment on T-47D breast, with KM12 colon, in the experiment with MDA-N, in the experiment on K-562 leukemia and in the experiment on NCI-H460 lung was greater than 100 µM throughout.

In the case of `Cc1cc2c(cc1-c1cc3c(cc1C)C(C(C)C)=C(O)C(=O)/C3=C\Nc1ccccn1)/C(=C/Nc1ccccn1)C(=O)C(O)=C2C(C)C`, the TGI in the experiment with A549 NSCLC, in the experiment on SK-MEL-28 melanoma, in the experiment with NCI/ADR-RES ovarian, in the experiment with RPMI-8226 leukemia, with UACC-257 melanoma and in the experiment on RXF 393 renal was greater than 100 µM each time. Also, the TGI is greater than 100 µM with T-47D breast; 73.6 µM in the experiment with KM12 colon; greater than 100 µM in the experiment with MDA-N; greater than 100 µM in the experiment on K-562 leukemia; greater than 100 µM in the experiment with NCI-H460 lung.

On to `COc1cc(C2c3cc4c(cc3OC(NNc3ccccc3)C2C)OCO4)cc(OC)c1O` (stereo unspecified), for which the TGI in the experiment with A549 NSCLC worked out at 13.3 µM; with SK-MEL-28 melanoma, 21.3 µM; with NCI/ADR-RES ovarian, 11.1 µM; with RPMI-8226 leukemia, 9.78 µM; with UACC-257 melanoma, 20 µM; in the experiment on RXF 393 renal it was 13.7 µM. The TGI in the experiment on T-47D breast is 10.7 µM; in the experiment on KM12 colon, 12 µM; with MDA-N, 2.75 µM; in the experiment with K-562 leukemia, 12.4 µM; in the experiment on NCI-H460 lung it was 17.7 µM.

`N#CC(C#N)C1CN2CCC1CC2` (stereo unspecified): the TGI in the experiment with A549 NSCLC, with SK-MEL-28 melanoma, in the experiment with NCI/ADR-RES ovarian, in the experiment with RPMI-8226 leukemia, in the experiment with UACC-257 melanoma and with RXF 393 renal was greater than 100 µM throughout. The TGI in the experiment on T-47D breast, in the experiment with KM12 colon, in the experiment with MDA-N, in the experiment with K-562 leukemia and in the experiment with NCI-H460 lung was greater than 100 µM in each case.

On to `NC(CS)C(=O)NCCNc1ccc(NCCNC(=O)C(N)CS)c2c1C(=O)c1c(O)ccc(O)c1C2=O` (stereo unspecified), for which the TGI is 0.191 µM with A549 NSCLC; 2 µM and 1.81 µM in the experiment on SK-MEL-28 melanoma; 1.03 µM with NCI/ADR-RES ovarian; 0.744 µM and 0.0804 µM in the experiment with RPMI-8226 leukemia; 2.41 µM and 2.29 µM in the experiment with UACC-257 melanoma; 0.554 µM and 0.455 µM with RXF 393 renal. Moreover, the TGI with T-47D breast is 1.45 µM; with KM12 colon, 0.874 µM and 0.264 µM; with MDA-N, 1.68 µM; with K-562 leukemia, 0.614 µM and 0.145 µM; in the experiment on NCI-H460 lung, 0.208 µM and 0.125 µM. The GI50 with SK-MEL-28 melanoma was 0.43 µM; with RPMI-8226 leukemia it was 0.0152 µM; in the experiment with RXF 393 renal, 0.103 µM; in the experiment with KM12 colon, 0.0393 µM; in the experiment with K-562 leukemia it was 0.0192 µM.

As for `CN(C)CCCN=c1c2ccccc2n(C)c2[nH]c(=O)n(C)c(=O)c12`, the TGI is greater than 100 µM with A549 NSCLC; 26.8 µM in the experiment with SK-MEL-28 melanoma; greater than 100 µM in the experiment with NCI/ADR-RES ovarian; greater than 54.4 µM in the experiment on RPMI-8226 leukemia; 13.8 µM in the experiment on UACC-257 melanoma; 30.1 µM with RXF 393 renal. Moreover, the TGI was greater than 54.7 µM with T-47D breast; 42.4 µM in the experiment on KM12 colon; 16.2 µM in the experiment with MDA-N; greater than 52 µM in the experiment on K-562 leukemia; 11.5 µM in the experiment on NCI-H460 lung.

For `COc1cc2nc3n(c(=O)c2cc1OC)CCCCC3`, the TGI with A549 NSCLC, in the experiment with SK-MEL-28 melanoma, in the experiment with NCI/ADR-RES ovarian, in the experiment on RPMI-8226 leukemia, with UACC-257 melanoma and in the experiment with RXF 393 renal was greater than 100 µM in each case. The TGI in the experiment on T-47D breast, in the experiment with KM12 colon, with MDA-N, in the experiment with K-562 leukemia and in the experiment with NCI-H460 lung was greater than 100 µM in each case.

With `COC(=O)[C@@H](NC(=O)c1ccc(CNC(=O)/C(C)=C/c2ccccc2)cc1)C(C)C`, the TGI in the experiment with A549 NSCLC is greater than 100 µM; with SK-MEL-28 melanoma, greater than 100 µM; in the experiment on NCI/ADR-RES ovarian it was greater than 100 µM; with RPMI-8226 leukemia it was greater than 100 µM; in the experiment with UACC-257 melanoma, 39 µM; in the experiment on RXF 393 renal, greater than 100 µM. Further, the TGI with T-47D breast, with KM12 colon, in the experiment with MDA-N, in the experiment with K-562 leukemia and in the experiment on NCI-H460 lung was greater than 100 µM each time.

In the case of `O=C(c1cccnc1)N1N=C(c2ccc3c(c2)OCO3)CC1(O)c1cc(F)c(Cl)cc1Cl` (stereo unspecified), the TGI is greater than 100 µM with A549 NSCLC; 77.5 µM in the experiment with SK-MEL-28 melanoma; 50.4 µM with NCI/ADR-RES ovarian; greater than 100 µM in the experiment on RPMI-8226 leukemia; 51.2 µM with UACC-257 melanoma; 26.1 µM in the experiment on RXF 393 renal. Also, the TGI in the experiment with T-47D breast is 43.2 µM; in the experiment on KM12 colon it was greater than 100 µM; in the experiment on MDA-N, greater than 100 µM; with K-562 leukemia, greater than 100 µM; in the experiment with NCI-H460 lung it was 36.9 µM.

Take `O=C1C=CC(=O)[C@H]2C3C=CC(C4C3C3(Cl)C(Cl)=C(Cl)[C@]4(Cl)C3(Cl)Cl)[C@@H]12` (stereo partly specified): the TGI with A549 NSCLC amounted to 16 µM; in the experiment on SK-MEL-28 melanoma, 18.6 µM; with NCI/ADR-RES ovarian, 17.4 µM; with RPMI-8226 leukemia, 23 µM; in the experiment with UACC-257 melanoma, 6.23 µM; in the experiment on RXF 393 renal it was 13.8 µM. For the same molecule, the TGI in the experiment with T-47D breast was determined as 23.2 µM; in the experiment with KM12 colon it was 17 µM; in the experiment on MDA-N, 15.8 µM; in the experiment on K-562 leukemia, 20.4 µM; in the experiment on NCI-H460 lung, 15.9 µM.

For `NCCN(CCN)/[N+]([O-])=N/O`, the TGI in the experiment with A549 NSCLC, in the experiment on SK-MEL-28 melanoma, in the experiment with NCI/ADR-RES ovarian, in the experiment with RPMI-8226 leukemia, with UACC-257 melanoma and in the experiment on RXF 393 renal was greater than 100 µM throughout. For the same molecule, the TGI in the experiment with T-47D breast, in the experiment on KM12 colon, in the experiment with MDA-N, in the experiment on K-562 leukemia and in the experiment on NCI-H460 lung was greater than 100 µM each time.

Regarding `O=C1C(=O)N(C23CC4CC(CC(C4)C2)C3)C(=S)N1c1ccccc1`, the TGI in the experiment on A549 NSCLC, in the experiment with SK-MEL-28 melanoma, in the experiment with NCI/ADR-RES ovarian, in the experiment with RPMI-8226 leukemia, with UACC-257 melanoma and in the experiment on RXF 393 renal was greater than 100 µM each time. Besides, the TGI with T-47D breast, in the experiment with KM12 colon, in the experiment on MDA-N, in the experiment on K-562 leukemia and with NCI-H460 lung was greater than 100 µM each time.

Turning to `O=C(NCCCc1cn[nH]c(=O)n1)c1cccc2nc3ccccc3nc12`, the TGI in the experiment on A549 NSCLC, with SK-MEL-28 melanoma, in the experiment on NCI/ADR-RES ovarian, with RPMI-8226 leukemia, in the experiment on UACC-257 melanoma and with RXF 393 renal was greater than 100 µM each time. Further, the TGI with T-47D breast, in the experiment with KM12 colon, with MDA-N, in the experiment with K-562 leukemia and with NCI-H460 lung was greater than 100 µM in each case.

Regarding `O=C1C(c2c(O)[nH]c3ccc(I)cc23)=Nc2ccccc21`, the TGI in the experiment on A549 NSCLC was 20.3 µM; in the experiment on SK-MEL-28 melanoma it was greater than 86.3 µM; in the experiment with NCI/ADR-RES ovarian it was greater than 100 µM; in the experiment with RPMI-8226 leukemia it was greater than 100 µM; with UACC-257 melanoma it was greater than 75.1 µM; in the experiment on RXF 393 renal, 34.6 µM. Also, the TGI was greater than 100 µM in the experiment on T-47D breast; greater than 100 µM in the experiment on KM12 colon; greater than 100 µM in the experiment on MDA-N; greater than 100 µM in the experiment with K-562 leukemia; greater than 88.6 µM in the experiment on NCI-H460 lung.

For orientation: TGI means the concentration giving total growth inhibition. A lower TGI goes with more potent growth arrest. One may read the GI50 as the concentration giving 50% growth inhibition.
